In PubChem BioAssay (NCI):
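Test compounds were applied to cells in 96-well plates for 48 hours at 5 doses. The concentration for full growth arrest is given as TGI.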 Where a SMILES comes first, the peptide text is derived from it. [ ]: non-standard residue; d: D form. The star is where a group is joined. ξ: configuration not given here. NMeY = CN[C@@H](Cc1ccc(O)cc1)C(=O)O; Cbz = O=C(OCc1ccccc1)*; ξA = CC(N)C(=O)O

Assays:
Assay in all cases: DTP human tumour cell line panel, 48 h
CAKI-1 renal = tested on: CAKI-1 renal
SNB-75 CNS = tested on: SNB-75 CNS
NCI/ADR-RES ovarian = tested on: NCI/ADR-RES ovarian
MCF7 breast = tested on: MCF7 breast
COLO 205 colon = tested on: COLO 205 colon
T-47D breast = tested on: T-47D breast
SF-539 CNS = tested on: SF-539 CNS
SF-268 CNS = tested on: SF-268 CNS
OVCAR-4 ovarian = tested on: OVCAR-4 ovarian
NCI-H522 lung = tested on: NCI-H522 lung
786-0 renal = tested on: 786-0 renal

Compound | TGI (CAKI-1 renal) [µM] | TGI (SNB-75 CNS) [µM] | TGI (NCI/ADR-RES ovarian) [µM] | TGI (MCF7 breast) [µM] | TGI (COLO 205 colon) [µM] | TGI (T-47D breast) [µM] | TGI (SF-539 CNS) [µM] | TGI (SF-268 CNS) [µM] | TGI (OVCAR-4 ovarian) [µM] | TGI (NCI-H522 lung) [µM] | TGI (786-0 renal) [µM]
O=c1[nH][nH]c(=O)n1Cc1ccccc1 | > 100 | > 100 | > 100 | > 100 | > 100 | > 100 | > 100 | > 100 | > 100 | > 100 | > 100
COC(=O)c1cc(/C=C/C(=O)Cc2ccccc2)cn1S(=O)(=O)c1ccccc1 | > 100 | > 100 | > 100 | > 100 | > 100 | > 100 | > 100 | > 100 | > 100 | > 100 | > 100
CC(C)N(C(C)C)S(=O)(=O)CC12CCC(C/C1=N\O)C2 (stereo unspecified) | > 100 | > 100 | > 100 | > 100 | > 100 | > 100 | > 100 | > 100 | > 100 | > 100 | > 100
COc1ccc(C[C@@H](C(=O)N[C@@H](C)C(N)=O)N(C)C(=O)[C@@H]2CCCN2C(=O)[C@H](CC(C)C)NC(=O)C(C)NC(=O)OCc2ccccc2)cc1 (stereo partly specified) (Cbz-[ξA]LP[NMeY](Me)A-NH2) | > 100 | > 100 | > 100 | > 100 | > 100 | > 100 | > 100 | > 100 | > 100 | > 100 | > 100
CNC(=O)O/N=C1\N(C)CN(c2ccccc2)C12CCN(CCCC(=O)c1ccc(F)cc1)CC2 | > 100 | 24.3 | > 100 | > 100 | 33.2 | > 100 | > 100 | > 100 | > 100 | > 100 | > 100
Nc1c(F)c(F)c2c(c1F)N(CCCCCl)c1ccccc1S2 | > 100 | > 100 | > 100 | > 100 | > 100 | > 100 | > 100 | > 100 | > 100 | > 100 | > 100
C1CSCCSCCSCCSCCS1 | > 100 | > 100 | > 100 | > 100 | > 100 | > 100 | > 100 | > 100 | > 100 | > 100 | > 100
CSC12c3cc(C)n(-c4ccc(I)cc4)c3CC(C)(C)CN1C(=O)C2Oc1ccccc1 (stereo unspecified) | > 100 | > 100 | > 100 | > 100 | > 100 | > 100 | > 100 | > 100 | > 100 | > 100 | > 100
COc1ccccc1N1CCN(S(=O)(=O)c2ccc(Cl)cc2)C1=N | > 100 | > 100 | > 100 | > 100 | > 100 | > 100 | > 100 | > 100 | > 100 | > 100 | > 100
COc1ccccc1/C=C1\CCC(Cc2ccccc2)(CN(C)C)C1=O (stereo unspecified) | 51.8 | > 88.9 | > 100 | 25.6 | 7.82 | > 100 | 5.89 | > 100 | > 100 | 2.1 | 23.4
c1ccc2c(c1)CCN1CCc3ccccc3C1C2 (stereo unspecified) | > 100 | > 100 | > 100 | > 100 | > 100 | > 100 | 61.5 | > 100 | > 100 | > 100 | > 100
O=S(=O)(O)c1c(Cl)c(Cl)c(O)c2ncccc12 | 65.4 | 39.3 | 49.7 | 21.6 | 31.8 | 22 | > 56.7 | 13.8 | 47.1 | 21.4 | 21.1
Cc1cn(C2CC(O)C(Cn3nncc3Cn3cnc4c(N)ncnc43)O2)c(=O)[nH]c1=O (stereo unspecified) | > 100 | > 100 | > 100 | > 100 | > 100 | > 100 | > 100 | > 100 | > 100 | > 100 | > 100
CCC1=CC(OCc2ccccc2)C(CCN(Cc2ccccc2)C(=O)OCc2ccccc2)C1 (stereo unspecified) | 28.3 | 22.6 | 35.3 | 35 | 45.6 | 22.8 | 49.1 | 32.5 | 27.4 | 25.9 | 40.1
CC(=O)N1C(c2[nH]c3ccccc3c2Cc2ccccc2)CCN1c1ccccc1 (stereo unspecified) | > 10 | > 10 | > 10 | > 10 | > 10 | > 10 | > 10 | > 10 | > 10 | > 10 | > 10
CCOC(=O)/C=C(/C(=O)OCC)n1ccc(=O)n(Cc2cn(CCCCOC(C)=O)nn2)c1=O | 53.6 | > 100 | > 100 | > 100 | > 100 | > 100 | > 100 | > 100 | > 100 | 29.3 | > 100
